According to patent US7423053B2, “4-Aminothiazole derivatives” (Hoffmann-La Roche Inc., priority 2004, dated 2008):

Tests used:
Format in all cases: biochemical
Conditions in all cases: Rb substrate, ATP at 3x Km, Ki=IC50/(1+S/Km)
human cyclin B-CDK1 = human cyclin B-CDK1 (Homo sapiens, UniProt P06493); assay: CDK1 HTRF kinase assay (Ki measurement)
Description: (§1) This experiment was conducted using recombinant human cyclin B-CDK1, human cyclin E-CDK2 or human cyclin D1-CDK4 complexes. GST-cyclinE (GST-cycE), CDK2, GST-cyclinB (GST-cycB), CDK1, GST-CDK4 and cyclin D1 (cycD1) cDNA clones in baculovirus vectors were provided by Dr. W. Harper at the Baylor College of Medicine, Houston, Tex. Proteins were co-expressed in High Five™ insect cells and the complex was purified on glutathione Sepharose resin (Pharmacia, Piscataway, N.J.) as previously described (Harper, J. W. et al. Cell 1993, 75, 805-816). […]
(§2) The expression of the 62 Kd protein was under the control of an IPTG inducible promoter in an M15 E. coli strain. […] Purified Rb fusion protein stocks were quantitated for protein concentration, aliquoted, and stored at −70° C.
(§3) Using the protein constructs described above, CDK1, CDK2, and CDK4 HTRF assays were set up. These were done in 96-well format and read in 384-well plate format. […]
(§4) In the CDK4 assay, test compounds were diluted to 3× ntheir final concentrations in 25 mM Hepes, pH 7.0, 6.25 mM MgCl2, 1.5 mM DTT, 135 μM ATP. […] The plates were read using either ViewLux or Victor V readers (PerkinElmer Life Sciences) using an excitation wavelength of 340 nm and dual emission wavelengths of 615 nm and 665 nm. […]

human cyclin D1-CDK4 = human cyclin D1-CDK4 (Homo sapiens, UniProt P11802); assay: CDK4 HTRF kinase assay (Ki measurement)
Chain of human cyclin D1-CDK4 (P11802 whole entry): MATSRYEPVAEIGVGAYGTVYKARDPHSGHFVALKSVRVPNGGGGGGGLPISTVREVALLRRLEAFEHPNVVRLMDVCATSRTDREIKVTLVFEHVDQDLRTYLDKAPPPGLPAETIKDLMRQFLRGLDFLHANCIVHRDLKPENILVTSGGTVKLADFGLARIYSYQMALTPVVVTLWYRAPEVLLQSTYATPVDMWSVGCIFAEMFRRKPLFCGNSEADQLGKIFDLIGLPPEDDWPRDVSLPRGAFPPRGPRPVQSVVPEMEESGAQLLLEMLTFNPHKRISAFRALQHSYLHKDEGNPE
Chain of human cyclin D1-CDK4 (P24385 whole entry partner): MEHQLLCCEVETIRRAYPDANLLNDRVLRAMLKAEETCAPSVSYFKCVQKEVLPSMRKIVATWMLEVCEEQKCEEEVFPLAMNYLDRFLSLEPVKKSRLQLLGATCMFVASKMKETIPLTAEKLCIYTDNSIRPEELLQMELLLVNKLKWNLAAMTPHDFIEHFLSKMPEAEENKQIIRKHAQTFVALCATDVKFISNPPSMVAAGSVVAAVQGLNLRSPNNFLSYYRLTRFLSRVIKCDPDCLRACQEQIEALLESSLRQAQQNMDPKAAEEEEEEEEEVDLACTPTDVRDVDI
Description: as §1, §2, §3, §4

human cyclin E-CDK2 = human cyclin E-CDK2 (Homo sapiens, UniProt P24941); assay: CDK2 HTRF kinase assay (Ki measurement)
Description: as §1, §2, §3, §4

Chain of human cyclin B-CDK1 (P06493 whole entry): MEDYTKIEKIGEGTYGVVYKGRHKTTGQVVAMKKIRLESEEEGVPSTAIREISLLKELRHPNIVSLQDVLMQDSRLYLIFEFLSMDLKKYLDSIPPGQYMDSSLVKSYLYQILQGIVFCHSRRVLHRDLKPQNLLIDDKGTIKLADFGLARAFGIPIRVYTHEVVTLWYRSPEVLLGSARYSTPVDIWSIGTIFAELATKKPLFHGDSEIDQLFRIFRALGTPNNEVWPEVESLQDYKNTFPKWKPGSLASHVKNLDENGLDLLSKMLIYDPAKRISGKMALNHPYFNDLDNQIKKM
Chain of human cyclin B-CDK1 (P14635 whole entry partner): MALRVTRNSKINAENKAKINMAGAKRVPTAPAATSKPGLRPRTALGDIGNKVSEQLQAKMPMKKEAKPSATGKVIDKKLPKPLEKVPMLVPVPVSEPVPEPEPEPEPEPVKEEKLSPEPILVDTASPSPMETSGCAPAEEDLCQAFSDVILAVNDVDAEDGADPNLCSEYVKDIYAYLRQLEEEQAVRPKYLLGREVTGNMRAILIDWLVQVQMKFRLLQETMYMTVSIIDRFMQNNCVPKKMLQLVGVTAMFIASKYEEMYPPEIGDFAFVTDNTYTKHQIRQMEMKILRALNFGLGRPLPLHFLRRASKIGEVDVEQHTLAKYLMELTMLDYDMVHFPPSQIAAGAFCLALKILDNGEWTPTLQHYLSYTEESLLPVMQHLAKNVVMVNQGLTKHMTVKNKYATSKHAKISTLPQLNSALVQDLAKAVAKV

SMILES	Ki (human cyclin B-CDK1) [nM]	Ki (human cyclin D1-CDK4) [nM]	Ki (human cyclin E-CDK2) [nM]
COc1ccc(F)c(F)c1C(=O)c1sc(NC2CCN(S(C)(=O)=O)CC2)nc1N [Example 14, [4-Amino-2-(1-methanesulfonylpiperidin-4-ylamino)thiazol-5-yl]-(2,3-difluoro-6-methoxyphenyl)methanone]	1	2	1
CS(=O)(=O)N1CCC(Nc2nc(N)c(C(=O)c3c(F)cccc3F)s2)CC1 [Example 17, [4-Amino-2-(1-methanesulfonyl-piperidin-4-ylamino)thiazol-5-yl]-(2,6-difluorophenyl)methanone]	3	6	5
